Calls of active or inactive are those of the source. The rule behind the calls is not given here.
The compounds below were run against Protein LANA1 (Human herpesvirus 8 type P (isolate GK18)) (UniProt Q9QR71) (assay: disruption of KSHV LANA peptide–nucleosome binding – biochemical, fluorescence polarization, cell-free, retest, dose response (AID 435023)).
Chain of Protein LANA1 (Human herpesvirus 8 type P (isolate GK18)) (Q9QR71 whole entry, looked up): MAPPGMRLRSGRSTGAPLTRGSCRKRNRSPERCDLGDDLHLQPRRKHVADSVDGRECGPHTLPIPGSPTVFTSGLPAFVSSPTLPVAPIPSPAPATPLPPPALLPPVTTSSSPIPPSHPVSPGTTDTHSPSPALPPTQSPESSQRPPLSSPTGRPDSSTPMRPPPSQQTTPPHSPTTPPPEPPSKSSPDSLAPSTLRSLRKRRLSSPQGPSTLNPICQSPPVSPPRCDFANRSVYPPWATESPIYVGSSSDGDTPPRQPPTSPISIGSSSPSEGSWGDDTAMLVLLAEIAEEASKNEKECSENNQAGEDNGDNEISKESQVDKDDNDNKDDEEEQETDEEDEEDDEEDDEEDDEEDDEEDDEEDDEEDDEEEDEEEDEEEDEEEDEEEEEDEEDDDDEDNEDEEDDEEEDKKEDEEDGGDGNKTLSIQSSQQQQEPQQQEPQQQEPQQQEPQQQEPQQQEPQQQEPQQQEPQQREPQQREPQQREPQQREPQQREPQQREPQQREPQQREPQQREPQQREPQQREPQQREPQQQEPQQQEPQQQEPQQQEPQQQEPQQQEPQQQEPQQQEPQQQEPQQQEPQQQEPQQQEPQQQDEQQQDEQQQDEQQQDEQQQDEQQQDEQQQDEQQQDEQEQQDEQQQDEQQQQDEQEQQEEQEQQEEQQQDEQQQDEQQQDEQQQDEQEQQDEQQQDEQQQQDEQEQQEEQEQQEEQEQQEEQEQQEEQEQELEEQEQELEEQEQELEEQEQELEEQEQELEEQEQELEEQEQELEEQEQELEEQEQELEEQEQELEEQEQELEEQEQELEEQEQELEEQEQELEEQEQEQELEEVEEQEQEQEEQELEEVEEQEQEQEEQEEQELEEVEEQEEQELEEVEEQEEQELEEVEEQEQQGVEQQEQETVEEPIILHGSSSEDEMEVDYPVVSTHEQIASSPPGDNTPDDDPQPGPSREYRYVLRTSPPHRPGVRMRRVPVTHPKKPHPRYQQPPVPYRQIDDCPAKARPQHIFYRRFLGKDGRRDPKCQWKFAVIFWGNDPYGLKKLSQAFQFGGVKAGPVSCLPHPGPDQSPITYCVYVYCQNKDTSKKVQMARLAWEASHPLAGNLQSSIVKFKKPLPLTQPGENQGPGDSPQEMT

SMILES	EC50
CC(=O)C1=C(O)C(=O)N(c2ccc(C(=O)O)cc2)C1c1ccc([N+](=O)[O-])cc1 (configuration not stated)	> 7.5 µM (inactive)
O=C1CC(c2ccc(F)cc2)CC(O)=C1C=NCCN1CCNCC1 (configuration not stated)	> 7.5 µM (inactive)
CC1(C)C(c2cccs2)=[N+]([O-])C2(CCCCC/C2=N\O)N1O (configuration not stated)	> 7.5 µM (inactive)
CN1CC=C2C(C#N)=C(N)C(C#N)(C#N)[C@H](c3ccoc3)[C@H]2C1	> 7.5 µM (inactive)
COc1ccccc1N1CCN(C2CC(=O)N(c3cccc(Cl)c3)C2=O)CC1 (configuration not stated)	> 7.5 µM (inactive)
CCC/C=N/O	> 7.5 µM (inactive)
Cc1cc(C)nc(SC2CC(=O)N(c3ccc(C)c(C)c3)C2=O)n1 (configuration not stated)	> 7.5 µM (inactive)
COc1cc([N+](=O)[O-])ccc1N1C(=O)CC(Sc2nccc(C)n2)C1=O (configuration not stated)	> 7.5 µM (inactive)
COc1ccc(N/C=C/C(=O)c2cc(OC)c(OC)c(OC)c2)cc1	> 7.5 µM (inactive)
O=C(O)CC1S/C(=N/N=C/c2ccccn2)NC1=O (configuration not stated)	> 7.5 µM (inactive)
O=[N+]([O-])c1cccc(/C=N/Nc2nccnc2Cl)c1	> 7.5 µM (inactive)
O=C(O)C(C/C(=N/O)c1ccc(Br)cc1)P(=O)(c1ccccc1)c1ccccc1 (configuration not stated)	> 7.5 µM (inactive)
CCOc1ccc(N2C(=O)C3ON(c4ccccc4)C(c4ccco4)C3C2=O)cc1 (configuration not stated)	> 7.5 µM (inactive)
CNC(=O)c1ccc(NC(=O)CC2SC(N3CCCC3)=NC2=O)cc1 (configuration not stated)	> 7.5 µM (inactive)
CCN(CC)CCN1C(=O)C(O)=C(C(=O)c2ccc(C)o2)C1c1ccccn1 (configuration not stated)	> 7.5 µM (inactive)
CCc1nnc(NS(=O)(=O)c2ccc(N=CC3=C(O)CC(C)(C)CC3=O)cc2)s1	> 7.5 µM (inactive)
C/C(=N/NC(=O)c1ccncc1)c1cc2ccc(O)cc2oc1=O	> 7.5 µM (inactive)
O=C(/C=C/Nc1ccccc1)c1ccc(Cl)cc1Cl	> 7.5 µM (inactive)
NC(=O)Cn1c(O)c(N=NC(=O)CNC(=O)/C=C/c2ccccc2)c2ccccc21	> 7.5 µM (inactive)
COC(=O)CC1=C(C(=O)OC)C(c2cc(OC)c(OC)cc2OC)C(C#N)=C(N)O1 (configuration not stated)	> 7.5 µM (inactive)
COc1ccc(NC2=C(Cl)C(=O)N(c3ccccc3)C2=O)c(OC)c1	> 7.5 µM (inactive)
C=CCOc1ccc(/C(O)=C2/C(=O)C(=O)N(CCCN3CCOCC3)C2c2ccc(OC)cc2)cc1 (configuration not stated)	> 7.5 µM (inactive)
CC(C)n1c(O)c(/C=C2\C=NN=C2c2ccccc2)sc1=S	> 7.5 µM (inactive)
COC(=O)c1ccccc1NC1CC(=O)N(c2c(C)cccc2C)C1=O (configuration not stated)	> 7.5 µM (inactive)

SMILES	EC50
Cc1cccc(CC2CC(=O)N(c3ccc(C)cc3Br)C2=O)c1 (configuration not stated)	> 7.5 µM (inactive)
CCNc1nc(NCC)nc(N/N=C/c2ccc(N(C)C)cc2)n1	> 7.5 µM (inactive)
C/C(=N\Nc1ccc(Cl)c(C(=O)O)c1)c1ccc(N2CCOCC2)cc1	> 7.5 µM (inactive)
Cc1ccc(N2C(=O)[C@@H]3C(C(=O)CN4C(=O)c5ccccc5C4=O)=NN[C@@H]3C2=O)c(C)c1	> 7.5 µM (inactive)
O=C(C1=C(O)C(=O)N(CCCN2CCOCC2)C1c1ccccn1)c1cc2ccccc2o1 (configuration not stated)	> 7.5 µM (inactive)
COc1ccc(C2C(C(=O)c3ccco3)=C(O)C(=O)N2CC2CCCO2)cc1OC (configuration not stated)	> 7.5 µM (inactive)
N#Cc1ccccc1/C=N/Nc1nc(-c2ccccc2)c2cc(Cl)ccc2n1	> 7.5 µM (inactive)
Cc1ccc(NC2=C([N+](=O)[O-])CS(=O)(=O)C2)cc1	> 7.5 µM (inactive)
CC1=NCCc2c1[nH]c1cc(O)ccc21	2.37 µM
CCCCc1ccc(N=N/C(C(=O)Nc2ccc(NC(C)=O)cc2OC)=C(/C)O)cc1	> 7.5 µM (inactive)
O=C(C1=C(O)C(=O)N(Cc2ccccc2)C1c1cccnc1)c1ccco1 (configuration not stated)	> 7.5 µM (inactive)
CN(CCOc1ccc(CC2SC(=O)NC2=O)cc1)c1ccccn1 (configuration not stated)	> 7.5 µM (inactive)
Cc1ccc2oc(=O)c(/C=C(\O)c3ccco3)nc2c1	> 7.5 µM (inactive)
CCn1c(O)c(/C=C2\C=NN=C2c2ccccc2)sc1=S	> 7.5 µM (inactive)
O=c1c(/C=C(\O)c2ccc(F)cc2)nc2ccccc2n1-c1ccccc1	> 7.5 µM (inactive)
COc1ccc(CCn2c(O)c(C=Nc3ccc(F)cc3)c(=O)[nH]c2=O)cc1OC	> 7.5 µM (inactive)
O=C(CC1SC(N2CCCCC2)=NC1=O)Nc1cccc(C(=O)O)c1 (configuration not stated)	> 7.5 µM (inactive)
Oc1c(N=NC(=S)Nc2ccccc2F)c2ccccc2n1Cc1ccc(Cl)cc1	> 7.5 µM (inactive)
COc1ccc(N/C=C/C(=O)c2ccc(Cl)cc2)cc1	> 7.5 µM (inactive)
CC1(C)C(C#N)=C(N)OC2=C1C(=O)CCC2	> 7.5 µM (inactive)
CCOc1cccc(C2C(C(=O)c3ccc(C)o3)=C(O)C(=O)N2c2nccs2)c1 (configuration not stated)	> 7.5 µM (inactive)
CC(=O)c1cccc(OC(=O)C2=CC=CN3CCS(=O)(=O)N=C23)c1	> 7.5 µM (inactive)
C/C(=N\Nc1nncc2ccccc12)c1ccc(O)cc1	> 7.5 µM (inactive)
O=C(CC1SC(N2CCOCC2)=NC1=O)Nc1ccc(Cl)c(C(F)(F)F)c1 (configuration not stated)	> 7.5 µM (inactive)

SMILES	EC50
Oc1ccc2nnc3c(Br)cnn3c2c1	> 7.5 µM (inactive)
N#CC(C#N)=C/C(C#N)=C(/N)N1CCN(c2ccc(Cl)cc2)CC1	> 7.5 µM (inactive)
Cn1[nH]c(-c2ccccc2)c(/C=N/O)c1=O	> 7.5 µM (inactive)
CCOC(=O)C1=C(CSc2nc(-c3ccccc3)ccc2C#N)OC(N)=C(C#N)C1c1ccccc1 (configuration not stated)	> 7.5 µM (inactive)
COc1ccccc1C1C(C(=O)c2sc(C)nc2C)=C(O)C(=O)N1CCN1CCOCC1 (configuration not stated)	> 7.5 µM (inactive)
COc1ccc(C2C(C(=O)c3cccs3)=C(O)C(=O)N2c2nncs2)cc1 (configuration not stated)	> 7.5 µM (inactive)
CC1C2CC(C(CN(C)C)/C2=N/O)C1(C)C (configuration not stated)	> 7.5 µM (inactive)
COc1cccc(CNC(=O)c2ccc(NC(=O)CC3SC(N4CCCC4)=NC3=O)cc2)c1 (configuration not stated)	> 7.5 µM (inactive)
COc1ccc(C(=O)/C=C/Nc2ccc(S(=O)(=O)Nc3cc(OC)nc(OC)n3)cc2)c(OC)c1	> 7.5 µM (inactive)
COc1ccc(C2=CC(c3cc(OC)c(OC)c(OC)c3)NC(=S)N2)cc1 (configuration not stated)	> 7.5 µM (inactive)
Cc1ccc(/C(O)=C/c2nc3cc(C)ccc3oc2=O)cc1	5.84 µM
CCN(CC)CCCN1C(=O)C(=O)/C(=C(/O)c2ccccc2)C1c1cc(OC)ccc1OC (configuration not stated)	> 7.5 µM (inactive)
CC[C@H]1c2[nH]c3ccccc3c2C[C@H]2C(=O)N(c3ccc(F)cc3)C(=O)N21	> 7.5 µM (inactive)
CC1Cc2cc(/C(O)=C3\C(=O)C(=O)N(Cc4cccnc4)C3c3ccccc3F)ccc2O1 (configuration not stated)	> 7.5 µM (inactive)
CC1OC(OCC2OC(Oc3c(-c4ccc(O)cc4)oc4cc(O)cc(O)c4c3=O)C(O)C(O)C2O)C(O)C(O)C1O (configuration not stated)	> 7.5 µM (inactive)
COc1cc(/C=N/O)c(Br)cc1OCC(=O)Nc1ccccc1C	> 7.5 µM (inactive)
CC1(C)CC(=O)C(C(C#Cc2ccccc2)C2=C(O)CC(C)(C)CC2=O)=C(O)C1	> 7.5 µM (inactive)
Brc1ccc(C2=CC(c3ccco3)n3ncnc3N2)cc1 (configuration not stated)	> 7.5 µM (inactive)
Cc1nc2c(C)cccn2c1/C(O)=C1\C(=O)C(=O)N(CCN(C)C)C1c1ccccc1 (configuration not stated)	> 7.5 µM (inactive)
COc1ccc(CC2C(=O)N(c3ccccc3)C(=O)N(c3ccccc3)C2=O)c(OC)c1	> 7.5 µM (inactive)
COc1ccccc1N1C(=O)[C@@H]2C(C(=O)CN3C(=O)c4ccccc4C3=O)=NN[C@@H]2C1=O	> 7.5 µM (inactive)
C/C(=N\N=C1/NC(=O)C(C)S1)c1ccc([N+](=O)[O-])cc1 (configuration not stated)	> 7.5 µM (inactive)
O=C1CCCC(O)=C1C=Nc1ccc(O)cc1	> 7.5 µM (inactive)
CCOc1cc(C2C3=C(CCCC3=O)Nc3nc(C(=O)OC)nn32)ccc1OC (configuration not stated)	> 7.5 µM (inactive)
